From patent publication US20260227379A1, “DEVICES AND METHODS FOR CLOT BURST PRESSURE MEASUREMENT” (THE BOARD OF REGENTS OF THE UNIVERSITY OF TEXAS SYSTEM, priority 2023, published 2026)

Tests used:
whole blood (WB) clot [1] = assay: Clot burst pressure (CBP) assay on conditioned whole blood; type: cell-based; conditions: for CBP normalized to individual donor baseline (times as strong): recalcified 6 mM CaCl2, 37 C 30 min
Procedure: An exemplary embodiment of the present disclosure was used to obtain test data as follows. Blood from donors (n=7) was collected into 3.2% sodium citrate tubes. Blood was divided and treated to achieve the following conditions for a hypocoagulable state: 0.10, 0.15, and 0.20 USP heparin/mL blood; for a hypercoagulable state, blood was treated with a 1.0 or 2.0 g/L addition of fibrinogen. 2 mm holes were drilled into 6-well polystyrene plates and packing tape was used to cover the bottom. Blood was recalcified with CaCl2 and pipetted into the holes. The plates were incubated at 37 C for 30 minutes to allow for thrombus formation. Tape was removed after incubation. A pressure cap was designed with an inlet for fluid from a syringe pump and an outlet for outflow and was secured in the wells with a watertight seal. Outflow led to a vertical graduated measurement column where pressure was converted from cmH2O to mmHg for data analysis.
The device comprises four primary components as shown in FIG. 1: a syringe pump, a pressure cap, a 6-well plate assembly, and a water column. A Programmable Syringe Pump was programmed to pump a 100 cc syringe at 1 mL/s at a continuous rate. The syringe pump is coupled to a pressure cap assembly.
The pressure cap assembly shown in FIGS. 2 and 3 directs fluid flow directly over a clot and prevents pressure loss to the environment. The cap has two female ports allowing for an inlet connection from the syringe pump and an outlet connecting to the water column. The cap has three legs to avoid direct contact with a clot. An O-Ring (Dash 242) fits in the groove found around the pressure cap ensuring a snug fit in a standard 6-well plate. As fluid enters the pressure cap, it is directed into a compartment where a formed clot is suspended. Backflow fluid rises up a 150 cm water column created from clear PVC pipe marked at 5 cm intervals. All connections used Luer locks and barbed connections to prevent fluid loss.
A 20″×20″ HDPE board was used as the base of the device, which contained the 6-well plate assembly and water column. 4, 2″ screws were used to elevate the 6-well plate assembly to allow for easy visual inspection after trial runs. A single 5/64″ hole was drilled into the centers of each well in a 6-well plate. 220-grit sandpaper was used in a circular manner on the inner surface of the well-plate to provide a sheared surface for platelet adhesion. Clear packing tape was used to cover the holes on the bottom of the plate prior to the start of the assay.
Venipuncture whole blood (WB) was collected from donors (male and female) who were at least 18 years of age and had not taken anticoagulant medication in the past 14 days. Blood was drawn from the antecubital fossa using a 19G needle into a standard blue top 3.2% sodium citrate vacutainer tube. Tubes were placed on a rocker at room temperature prior to use in the assay, but all assay runs were initiated within 30 minutes of blood draw.
WB was conditioned to mimic hyper and hypocoagulable states. RiaSTAP a lyophilized fibrinogen concentrate, was used to generate a hypercoagulable condition. WB was conditioned with a 1.0 mg/mL or 2.0 mg/mL bolus of fibrinogen. Heparin sodium salt (Sigma-Aldrich, OH) was reconstituted and added to WB at 0.10, 0.15, 0.20 USP/mL amounts to generate a hypocoagulable state. 6 mM of CaCl2) was added to each conditioned blood group and a control group to recalcify and promote coagulation.
35 μL of conditioned or control WB was placed in the 5/64″ hole above the packing tape in each well of the 6-well plates. The entire plate was incubated at 37 C for 30 min with the plate lid on. After 30 min, the plate was removed from the incubator and the packing tape on the bottom was removed. The pressure cap was placed in a single well in a spiral manner and an air-tight seal was created with the O-Ring. One port of the pressure cap was connected to the syringe pump and the other port to the vertical water column. […]

whole blood (WB) clot [2] = assay: as above; type: cell-based
[3] = Whole Blood w/ Heparin 0.10 USP/mL
[4] = Whole Blood w/ Heparin 0.15 USP/mL
[5] = Whole Blood w/ Heparin 0.20 USP/mL

## Heparin sodium salt
Whole blood (WB) clot [1]; [3]
  Clot Integrity: Weakened Clot
  Difference Between All Groups in CBP: Yes
Whole blood (WB) clot [1]; [4]
  Clot Integrity: Weakened Clot
  Difference Between All Groups in CBP: Yes
Whole blood (WB) clot [1]; [5]
  Clot Integrity: Weakened Clot
  Difference Between All Groups in CBP: Yes
Whole blood (WB) clot [1]; between the 0.10 and 0.20 USP heparin/mL group, whole blood
  Dose dependence of clot strength (CBP): dose-dependent weakness
Whole blood (WB) clot [1]; heparin 0.20-0.10 USP/mL range in whole blood
  Clot formation: weaker, but stable clot
Whole blood (WB) clot [1]; whole blood + 0.10 USP heparin/mL
  CBP normalized to individual donor baseline (times as strong): 0.54±0.19
Whole blood (WB) clot [1]; whole blood + 0.15 USP heparin/mL
  CBP normalized to individual donor baseline (times as strong): 0.41±0.17
Whole blood (WB) clot [1]; whole blood + 0.20 USP heparin/mL
  CBP normalized to individual donor baseline (times as strong): 0.25±0.02
Whole blood (WB) clot [2]; Whole Blood w/ Heparin 0.25 USP/mL
  Clot Integrity: Porous Clot
Whole blood (WB) clot [2]; Whole Blood w/ Heparin 0.35 USP/mL, listed as heparin, sodium salt
  Clot Integrity: completely inhibits clot production
Whole blood (WB) clot [2]; Whole Blood w/ Heparin 0.35 USP/mL, sodium salt
  Clot Integrity: No Clot Formation
